Reference: US9096601B2 (CSPC Zhongqi Pharmaceutical Technology (Shijiazhuang) Co., …, priority 2010, dated 2015)

Legend:
ALK = ALK (Homo sapiens (Human), UniProt Q9UM73); test: Kinase inhibitory activity, isotopic labeling (γ-33P-ATP); format: biochemical; conditions: compound at 10 μM
FLT3 = FLT3 (Homo sapiens (Human), UniProt P36888); test: as above; format: biochemical; conditions: compound at 10 μM
VEGFR2 = VEGFR2 (Homo sapiens (Human), UniProt P35968); test: as above; format: biochemical; conditions: ATP 90 μM (Km)
Outline: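 Substrate phosphorylation by each kinase (5-10 mU) is measured through transfer of the γ-33P label from ATP in MOPS buffer, pH 7.0, containing MnCl2 and magnesium acetate. Filter-captured counts at a series of compound concentrations yield the IC50.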

BTK = BTK (Homo sapiens (Human), UniProt Q06187); test: as above; format: biochemical; conditions: compound at 10 μM
c-KIT = c-KIT (Homo sapiens (Human), UniProt P10721); test: as above; format: biochemical; conditions: compound at 10 μM
c-SRC = c-SRC (Homo sapiens (Human), UniProt P12931); test: as above; format: biochemical; conditions: compound at 10 μM
MET = MET (Homo sapiens (Human), UniProt P08581); test: as above; format: biochemical; conditions: compound at 10 μM
PDGFRα = PDGFRα (Homo sapiens (Human), UniProt P16234); test: as above; format: biochemical; conditions: compound at 10 μM
Sequence of PDGFRα (P16234 24-1089): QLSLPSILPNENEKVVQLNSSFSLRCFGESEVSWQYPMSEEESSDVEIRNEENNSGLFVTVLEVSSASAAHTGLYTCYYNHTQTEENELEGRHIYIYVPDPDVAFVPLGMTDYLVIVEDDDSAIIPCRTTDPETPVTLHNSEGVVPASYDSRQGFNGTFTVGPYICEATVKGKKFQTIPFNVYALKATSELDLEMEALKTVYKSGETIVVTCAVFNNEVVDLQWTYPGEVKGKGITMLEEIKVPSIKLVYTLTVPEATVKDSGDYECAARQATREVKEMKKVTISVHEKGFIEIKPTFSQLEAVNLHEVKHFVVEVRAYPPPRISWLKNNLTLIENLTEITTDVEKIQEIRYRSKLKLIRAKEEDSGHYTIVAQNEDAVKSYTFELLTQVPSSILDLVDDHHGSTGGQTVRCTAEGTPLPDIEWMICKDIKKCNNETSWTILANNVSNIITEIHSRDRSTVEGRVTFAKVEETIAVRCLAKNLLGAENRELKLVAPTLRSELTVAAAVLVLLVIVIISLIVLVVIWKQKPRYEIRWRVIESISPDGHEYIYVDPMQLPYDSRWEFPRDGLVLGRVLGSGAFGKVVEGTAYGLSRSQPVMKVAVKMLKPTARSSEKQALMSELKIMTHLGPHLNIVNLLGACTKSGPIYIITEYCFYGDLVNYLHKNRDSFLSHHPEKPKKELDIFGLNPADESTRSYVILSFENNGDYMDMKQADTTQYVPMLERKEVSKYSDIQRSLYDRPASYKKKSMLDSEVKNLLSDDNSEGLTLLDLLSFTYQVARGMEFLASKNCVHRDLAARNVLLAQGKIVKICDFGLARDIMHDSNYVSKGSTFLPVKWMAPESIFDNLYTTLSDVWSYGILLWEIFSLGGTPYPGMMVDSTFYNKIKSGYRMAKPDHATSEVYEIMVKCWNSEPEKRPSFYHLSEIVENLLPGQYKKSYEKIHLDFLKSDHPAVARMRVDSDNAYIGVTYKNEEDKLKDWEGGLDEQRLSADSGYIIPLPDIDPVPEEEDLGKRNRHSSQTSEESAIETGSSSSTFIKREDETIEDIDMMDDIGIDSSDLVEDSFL

[1] = system: non-small cell lung carcinoma cell strain PC-9 (EGFR delE746-A750 deletion mutation); test: In-vitro tumor cell proliferation inhibition, MTT; format: cell-based, human; conditions: 72 hours
[2] = system: non-small cell lung carcinoma cell strain HCC827; test: In-vitro tumor cell proliferation inhibition, MTT; format: cell-based, human; conditions: 72 hours
Outline: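 Cells grown in RPMI-1640 with 10% FBS, seeded overnight (HCC827 at 6×10^4 cells/ml), then exposed to graded compound concentrations for 72 h at 37 °C, 5% CO2, with 1% DMSO solvent control. MTT absorbance at 570 nm; inhibition relative to control; triplicate wells, ≥3 repeats.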

[3] = system: non-small cell lung carcinoma cell strain H292 (EGFR WT); test: In-vitro tumor cell proliferation inhibition, MTT; format: cell-based, human; conditions: 72 hours
[4] = system: non-small cell lung carcinoma cell strain H1975 (EGFR L858R/T790M mutation); test: In-vitro tumor cell proliferation inhibition, MTT; format: cell-based, human; conditions: 72 hours
EGFR wild type = EGFR wild type (Homo sapiens (Human), UniProt P00533); test: Kinase inhibitory activity, isotopic labeling (γ-33P-ATP); format: biochemical; conditions: ATP 10 μM (Km)
Sequence of EGFR wild type (P00533 25-1210): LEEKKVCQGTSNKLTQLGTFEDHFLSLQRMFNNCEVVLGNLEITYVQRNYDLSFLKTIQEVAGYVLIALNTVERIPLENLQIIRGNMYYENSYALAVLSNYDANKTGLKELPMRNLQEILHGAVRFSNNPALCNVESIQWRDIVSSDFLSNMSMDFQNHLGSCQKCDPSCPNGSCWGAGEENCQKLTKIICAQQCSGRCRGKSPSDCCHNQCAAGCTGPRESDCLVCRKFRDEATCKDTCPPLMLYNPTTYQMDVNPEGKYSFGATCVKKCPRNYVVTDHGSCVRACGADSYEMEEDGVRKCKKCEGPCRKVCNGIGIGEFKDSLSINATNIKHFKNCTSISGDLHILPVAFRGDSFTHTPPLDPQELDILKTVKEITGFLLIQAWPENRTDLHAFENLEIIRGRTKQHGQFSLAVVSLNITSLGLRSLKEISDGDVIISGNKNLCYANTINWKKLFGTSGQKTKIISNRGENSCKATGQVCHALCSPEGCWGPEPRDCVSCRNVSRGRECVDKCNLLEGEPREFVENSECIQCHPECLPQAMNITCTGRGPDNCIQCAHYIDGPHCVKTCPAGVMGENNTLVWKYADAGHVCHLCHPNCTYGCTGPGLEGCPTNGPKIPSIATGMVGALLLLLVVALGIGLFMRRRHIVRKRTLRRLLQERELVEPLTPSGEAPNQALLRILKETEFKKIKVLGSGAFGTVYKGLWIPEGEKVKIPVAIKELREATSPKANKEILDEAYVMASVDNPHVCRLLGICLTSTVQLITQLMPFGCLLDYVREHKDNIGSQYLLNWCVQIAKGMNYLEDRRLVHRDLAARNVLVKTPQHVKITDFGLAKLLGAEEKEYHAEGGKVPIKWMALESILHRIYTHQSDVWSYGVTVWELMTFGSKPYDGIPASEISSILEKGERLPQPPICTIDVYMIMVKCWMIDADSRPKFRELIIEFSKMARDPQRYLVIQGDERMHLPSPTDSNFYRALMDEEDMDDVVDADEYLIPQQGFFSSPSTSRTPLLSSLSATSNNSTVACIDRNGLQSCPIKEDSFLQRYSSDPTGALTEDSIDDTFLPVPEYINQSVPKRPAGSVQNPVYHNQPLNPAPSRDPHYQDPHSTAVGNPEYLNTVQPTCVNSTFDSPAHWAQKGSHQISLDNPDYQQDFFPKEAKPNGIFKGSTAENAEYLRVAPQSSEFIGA
Procedure: (§1) The object of this assay was to test the inventive compounds for the kinase inhibitory activity in vitro. In this assay, an isotopic labeling method was used to label the γ phosphate group on ATP. […] Staurosporine was used as a reference molecule (or referred to as a positive control). […] The IC50 value can be obtained by the calculation of the inhibitory rates at a series of different concentrations of the tested compounds.
(§2) To a reaction tube were successively added the buffer solution (8 mM MOPS, pH 7.0, 0.2 mM EDTA, 10 mM MnCl2), the kinase to be tested (5-10 mU) (EGFR/ALK/BTK/c-KIT/c-SRC/MET/PDGFRα/VEGFR2), the substrate for the kinase to be tested (a reference material), 10 mM of the solution of magnesium acetate and γ-^33 P-ATP, and different concentrations of the tested compounds. […] The reaction was terminated with […] of the 3% phosphate buffer solution. 10 μL of the reaction liquid was titrated on the Filtermat A membrane. The membrane was washed with 75 mM of the phosphate solution thrice (5 minutes each time), and then with methanol once, and finally dried. The membrane was subjected to a scintillation counting. The value of the scintillation counting reflected the phosphorylation level of the substrate and therefore could characterize the inhibition of the kinase activity.

EGFR L858R mutant type = EGFR L858R mutant type (Homo sapiens (Human), UniProt P00533, L858R); test: as above; format: biochemical; conditions: ATP 200 μM (Km)
Sequence of EGFR L858R mutant type (P00533 25-1210 L858R): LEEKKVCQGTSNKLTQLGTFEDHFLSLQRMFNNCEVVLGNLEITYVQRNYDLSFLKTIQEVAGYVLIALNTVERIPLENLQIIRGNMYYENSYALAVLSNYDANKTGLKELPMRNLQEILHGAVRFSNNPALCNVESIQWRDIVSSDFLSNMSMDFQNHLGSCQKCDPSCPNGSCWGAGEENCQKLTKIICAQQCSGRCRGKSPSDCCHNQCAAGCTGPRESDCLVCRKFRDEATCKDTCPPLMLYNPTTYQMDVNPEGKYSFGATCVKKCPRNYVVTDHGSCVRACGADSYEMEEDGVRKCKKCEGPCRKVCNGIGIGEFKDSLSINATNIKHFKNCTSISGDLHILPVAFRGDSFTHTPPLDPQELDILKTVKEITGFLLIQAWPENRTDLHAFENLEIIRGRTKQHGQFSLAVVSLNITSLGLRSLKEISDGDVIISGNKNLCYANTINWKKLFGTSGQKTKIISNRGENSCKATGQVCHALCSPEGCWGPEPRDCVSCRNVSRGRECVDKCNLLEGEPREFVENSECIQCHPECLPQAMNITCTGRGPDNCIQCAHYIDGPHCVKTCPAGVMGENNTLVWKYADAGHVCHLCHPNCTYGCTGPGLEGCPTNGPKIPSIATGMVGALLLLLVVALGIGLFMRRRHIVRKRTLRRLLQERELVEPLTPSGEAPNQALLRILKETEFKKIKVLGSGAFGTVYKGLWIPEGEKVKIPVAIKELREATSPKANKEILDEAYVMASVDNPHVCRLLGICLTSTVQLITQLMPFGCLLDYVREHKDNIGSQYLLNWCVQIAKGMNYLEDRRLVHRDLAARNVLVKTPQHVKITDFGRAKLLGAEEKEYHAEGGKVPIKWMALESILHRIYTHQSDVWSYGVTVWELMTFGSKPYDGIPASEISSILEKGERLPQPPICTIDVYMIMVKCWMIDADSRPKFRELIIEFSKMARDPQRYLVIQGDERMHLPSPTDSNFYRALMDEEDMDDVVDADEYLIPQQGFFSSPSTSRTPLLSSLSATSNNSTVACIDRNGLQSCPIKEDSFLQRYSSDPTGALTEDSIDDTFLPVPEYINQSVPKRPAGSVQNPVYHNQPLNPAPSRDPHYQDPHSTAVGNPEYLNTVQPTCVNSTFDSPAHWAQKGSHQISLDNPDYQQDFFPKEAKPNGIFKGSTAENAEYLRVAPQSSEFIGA
Procedure: as §1, §2

[5] = target: EGFR L858R/T790M double mutant type (Homo sapiens (Human), UniProt P00533, L858R/T790M); test: as above; format: biochemical; conditions: ATP 45 μM (Km)
Procedure: as §1, §2

Sequence of ALK (Q9UM73 19-1620): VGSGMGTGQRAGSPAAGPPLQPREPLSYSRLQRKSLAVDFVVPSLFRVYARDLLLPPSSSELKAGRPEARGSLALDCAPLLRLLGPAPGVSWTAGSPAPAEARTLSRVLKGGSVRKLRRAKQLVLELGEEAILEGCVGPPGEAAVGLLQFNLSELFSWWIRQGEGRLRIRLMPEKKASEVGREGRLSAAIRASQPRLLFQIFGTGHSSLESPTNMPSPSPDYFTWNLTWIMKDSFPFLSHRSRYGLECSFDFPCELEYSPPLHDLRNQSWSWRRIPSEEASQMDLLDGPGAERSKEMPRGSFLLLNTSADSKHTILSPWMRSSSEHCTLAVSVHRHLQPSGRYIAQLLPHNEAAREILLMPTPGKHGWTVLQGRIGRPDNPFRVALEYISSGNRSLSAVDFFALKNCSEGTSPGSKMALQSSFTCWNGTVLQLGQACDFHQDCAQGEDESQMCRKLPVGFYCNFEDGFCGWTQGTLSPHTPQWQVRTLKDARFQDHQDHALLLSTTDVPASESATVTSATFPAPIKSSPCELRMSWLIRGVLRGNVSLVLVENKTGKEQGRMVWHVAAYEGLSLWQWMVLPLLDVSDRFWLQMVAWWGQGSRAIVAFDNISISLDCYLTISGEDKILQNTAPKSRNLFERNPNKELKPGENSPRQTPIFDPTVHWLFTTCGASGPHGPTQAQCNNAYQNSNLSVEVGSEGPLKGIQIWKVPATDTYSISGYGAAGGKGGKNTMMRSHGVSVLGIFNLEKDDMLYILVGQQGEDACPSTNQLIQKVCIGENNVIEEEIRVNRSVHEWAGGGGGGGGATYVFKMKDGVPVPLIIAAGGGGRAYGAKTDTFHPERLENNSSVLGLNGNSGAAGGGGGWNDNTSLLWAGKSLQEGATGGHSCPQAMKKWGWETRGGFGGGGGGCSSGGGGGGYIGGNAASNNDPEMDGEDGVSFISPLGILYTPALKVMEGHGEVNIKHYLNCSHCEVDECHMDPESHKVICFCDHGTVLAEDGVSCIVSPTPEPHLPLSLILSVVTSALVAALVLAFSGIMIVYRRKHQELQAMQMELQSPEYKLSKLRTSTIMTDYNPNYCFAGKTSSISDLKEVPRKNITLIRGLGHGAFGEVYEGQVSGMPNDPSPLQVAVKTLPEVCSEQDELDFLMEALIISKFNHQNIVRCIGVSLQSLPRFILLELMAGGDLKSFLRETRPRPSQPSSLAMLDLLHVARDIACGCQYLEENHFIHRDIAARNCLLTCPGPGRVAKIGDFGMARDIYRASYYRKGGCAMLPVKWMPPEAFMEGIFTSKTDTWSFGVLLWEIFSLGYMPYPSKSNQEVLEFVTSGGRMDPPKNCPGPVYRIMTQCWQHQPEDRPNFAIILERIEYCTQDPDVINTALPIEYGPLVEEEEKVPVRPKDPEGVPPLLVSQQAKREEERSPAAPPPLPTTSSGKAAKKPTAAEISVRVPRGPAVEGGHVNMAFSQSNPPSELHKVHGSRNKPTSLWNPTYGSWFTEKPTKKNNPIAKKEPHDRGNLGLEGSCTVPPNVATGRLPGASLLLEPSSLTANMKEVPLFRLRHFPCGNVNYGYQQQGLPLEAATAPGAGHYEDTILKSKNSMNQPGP

SMILES	The kinase activity inhibitory rate (%) by the tested compounds at 10 μM ALK (ALK) [%]	The kinase activity inhibitory rate (%) by the tested compounds at 10 μM FLT3 (FLT3) [%]	IC50 (VEGFR2) [nM]	The kinase activity inhibitory rate (%) by the tested compounds at 10 μM BTK (BTK) [%]	The kinase activity inhibitory rate (%) by the tested compounds at 10 μM c-KIT (c-KIT) [%]	The kinase activity inhibitory rate (%) by the tested compounds at 10 μM c-SRC (c-SRC) [%]	The kinase activity inhibitory rate (%) by the tested compounds at 10 μM MET (MET) [%]	The kinase activity inhibitory rate (%) by the tested compounds at 10 μM PDGFRα (PDGFRα) [%]	IC50 [1] [nM]	IC50 [2] [nM]	IC50 [3] [nM]	IC50 [4] [nM]	IC50 (EGFR wild type) [µM]	IC50 (EGFR L858R mutant type) [µM]	IC50 [5] [µM]
CC(C)n1c(Nc2cccc(C(F)(F)F)c2)nc2cnc(Nc3ccc(N4CCN(C)CC4)cc3)nc21 [Compounds 8-16]	17	45	> 1000	57	62	90	93	39	16.8	0.2	129	1820	0.003	0.001	0.012
COc1cccc(Nc2nc3cnc(Nc4ccc(N5CCN(C)CC5)cc4)nc3n2C(C)C)c1 [Compounds 8-17]	35	86	> 1000	100	89	99	52	72	2.5	0.2	29.6	1900	0.004	0.001	0.004
COc1ccc(Nc2nc3cnc(Nc4ccc(N5CCN(C)CC5)cc4)nc3n2C(C)C)cc1 [Compounds 8-18]	13	75	21	56	76	93	7	60	34.9	117	531	> 10000	0.03	0.005	0.057
CC(C)n1c(Nc2ccc(NC(=O)Nc3ccc(F)c(Cl)c3)cc2)nc2cnc(Nc3ccc(N4CCN(C)CC4)cc3)nc21 [Compounds 8-21]	97	78	> 1000	92	101	98	99	100	85.9	51.6	1160	7310	0.011	0.005	0.005
CC(C)n1c(Nc2ccc(C(=O)Nc3cccc(F)c3)cc2)nc2cnc(Nc3ccc(N4CCN(C)CC4)cc3)nc21 [Compounds 8-22]	70	87	> 1000	63	10	98	69	43	2790	> 1000	1730	> 10000	0.117	0.01	0.087
